In ChEMBL document CHEMBL3217647, “Prospective use of molecular field points in ligand-based virtual screening: efficient identification of new reversible Cdc25 inhibitors” (Medchemcomm, 2013):

Biological target: T1, Dual specificity protein phosphatase 3 (Homo sapiens, UniProt P51452)
Experiment: Inhibition of human His-tagged VHR phosphatase activity assessed as fluorescence by BMG plate reader in the absence of detergent

T1 sequence (P51452 whole entry): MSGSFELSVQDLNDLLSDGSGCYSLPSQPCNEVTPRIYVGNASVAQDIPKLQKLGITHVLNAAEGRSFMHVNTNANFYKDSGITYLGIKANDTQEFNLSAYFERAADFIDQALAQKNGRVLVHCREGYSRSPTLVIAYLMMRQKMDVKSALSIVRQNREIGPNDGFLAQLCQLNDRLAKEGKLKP

Structure (SMILES)	IC50 [µM]
COc1ccccc1-c1nc(-c2ccc3c(c2)CCN3S(C)(=O)=O)cs1	2.7
O=C(Nc1cccc(-c2csc(-c3ccccc3)n2)c1)c1ccco1	26.1
CCOc1ccc(-c2nc(-c3ccc4ccccc4c3)cs2)cc1	4.4
COc1ccc(-c2nc(-c3cc(C)n(CC4CCCO4)c3C)cs2)cc1 (centres undefined)	8.3
COc1ccc(-c2csc(-c3cccc(NC(=O)C4CC4)c3)n2)cc1	8.9

Biological target: T2, M-phase inducer phosphatase 2 (Homo sapiens, UniProt P30305)
T2 sequence (P30305 whole entry): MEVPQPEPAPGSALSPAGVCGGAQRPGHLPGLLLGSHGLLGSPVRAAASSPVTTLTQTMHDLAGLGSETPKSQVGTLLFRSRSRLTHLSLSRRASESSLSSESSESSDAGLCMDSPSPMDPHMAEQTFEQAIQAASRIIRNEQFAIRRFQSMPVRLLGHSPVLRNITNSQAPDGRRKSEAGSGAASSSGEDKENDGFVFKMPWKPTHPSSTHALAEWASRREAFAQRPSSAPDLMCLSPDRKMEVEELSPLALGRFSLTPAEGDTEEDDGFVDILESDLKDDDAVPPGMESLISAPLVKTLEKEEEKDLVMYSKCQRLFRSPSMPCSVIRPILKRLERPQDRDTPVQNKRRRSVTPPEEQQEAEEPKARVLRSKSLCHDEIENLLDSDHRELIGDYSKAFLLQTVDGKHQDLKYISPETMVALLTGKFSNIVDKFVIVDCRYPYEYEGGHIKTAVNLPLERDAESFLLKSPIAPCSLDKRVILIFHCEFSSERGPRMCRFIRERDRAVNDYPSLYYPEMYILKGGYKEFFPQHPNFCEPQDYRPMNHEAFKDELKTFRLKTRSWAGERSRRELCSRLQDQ
Experiment: Inhibition of Cdc25B (unknown origin) phosphatase activity assessed as fluorescence by BMG plate reader in the absence of detergent

Structure (SMILES)	IC50 [µM]
COc1ccccc1-c1nc(-c2ccc3c(c2)CCN3S(C)(=O)=O)cs1	10.1
O=C(Nc1cccc(-c2csc(-c3ccccc3)n2)c1)c1ccco1	> 100
CCOc1ccc(-c2nc(-c3ccc4ccccc4c3)cs2)cc1	13.6
COc1ccc(-c2nc(-c3cc(C)n(CC4CCCO4)c3C)cs2)cc1 (centres undefined)	12.1
COc1ccc(-c2csc(-c3cccc(NC(=O)C4CC4)c3)n2)cc1	14.9

Biological target: T3, Tyrosine-protein phosphatase non-receptor type 1 (Homo sapiens) (UniProt P18031)
T3 sequence (whole entry): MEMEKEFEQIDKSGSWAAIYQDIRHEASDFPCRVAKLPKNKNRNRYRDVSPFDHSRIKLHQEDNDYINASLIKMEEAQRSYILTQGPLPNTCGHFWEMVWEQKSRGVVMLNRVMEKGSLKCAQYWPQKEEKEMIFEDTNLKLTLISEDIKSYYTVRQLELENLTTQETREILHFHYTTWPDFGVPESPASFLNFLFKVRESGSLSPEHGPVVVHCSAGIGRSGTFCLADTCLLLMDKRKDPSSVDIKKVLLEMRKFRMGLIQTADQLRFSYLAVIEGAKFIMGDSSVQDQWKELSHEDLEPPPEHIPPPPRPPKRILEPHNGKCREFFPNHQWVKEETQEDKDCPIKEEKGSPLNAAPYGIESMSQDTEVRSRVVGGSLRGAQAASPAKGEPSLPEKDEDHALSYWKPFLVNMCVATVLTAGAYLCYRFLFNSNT
Experiment: Inhibition of PTP1B (unknown origin) phosphatase activity assessed as fluorescence at 100 uM by BMG plate reader in the presence of 0.005% Tween-20

Structure (SMILES)	inhibition [%]
COc1ccccc1-c1nc(-c2ccc3c(c2)CCN3S(C)(=O)=O)cs1	< 50
CCOc1ccc(-c2nc(-c3ccc4ccccc4c3)cs2)cc1	< 50
COc1ccc(-c2nc(-c3cc(C)n(CC4CCCO4)c3C)cs2)cc1 (centres undefined)	< 50

Biological target: T4, M-phase inducer phosphatase 1 (Homo sapiens, UniProt P30304)
T4 sequence (P30304 whole entry): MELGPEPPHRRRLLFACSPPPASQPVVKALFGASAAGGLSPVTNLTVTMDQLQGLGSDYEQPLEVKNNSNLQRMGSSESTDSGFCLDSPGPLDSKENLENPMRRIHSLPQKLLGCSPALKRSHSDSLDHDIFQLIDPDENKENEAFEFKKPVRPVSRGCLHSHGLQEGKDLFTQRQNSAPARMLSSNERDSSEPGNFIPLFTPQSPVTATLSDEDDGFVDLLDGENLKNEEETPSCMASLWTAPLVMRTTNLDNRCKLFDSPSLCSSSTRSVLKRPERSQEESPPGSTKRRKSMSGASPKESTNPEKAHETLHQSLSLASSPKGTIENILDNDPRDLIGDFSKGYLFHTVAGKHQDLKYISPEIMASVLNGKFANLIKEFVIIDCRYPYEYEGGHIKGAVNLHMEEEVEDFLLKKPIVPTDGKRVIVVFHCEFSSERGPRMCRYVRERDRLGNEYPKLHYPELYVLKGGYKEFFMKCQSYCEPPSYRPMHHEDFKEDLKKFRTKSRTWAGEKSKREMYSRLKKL
Experiment: Inhibition of Cdc25A (unknown origin) phosphatase activity assessed as fluorescence by BMG plate reader in the presence of 0.005% Tween-20

Structure (SMILES)	IC50 [µM]
COc1ccccc1-c1nc(-c2ccc3c(c2)CCN3S(C)(=O)=O)cs1	41.7
O=C(Nc1cccc(-c2csc(-c3ccccc3)n2)c1)c1ccco1	> 100
CCOc1ccc(-c2nc(-c3ccc4ccccc4c3)cs2)cc1	30
COc1ccc(-c2nc(-c3cc(C)n(CC4CCCO4)c3C)cs2)cc1 (centres undefined)	31.1
COc1ccc(-c2csc(-c3cccc(NC(=O)C4CC4)c3)n2)cc1	> 100

Biological target: T5, M-phase inducer phosphatase 3 (Homo sapiens, UniProt P30307)
T5 sequence (P30307 whole entry): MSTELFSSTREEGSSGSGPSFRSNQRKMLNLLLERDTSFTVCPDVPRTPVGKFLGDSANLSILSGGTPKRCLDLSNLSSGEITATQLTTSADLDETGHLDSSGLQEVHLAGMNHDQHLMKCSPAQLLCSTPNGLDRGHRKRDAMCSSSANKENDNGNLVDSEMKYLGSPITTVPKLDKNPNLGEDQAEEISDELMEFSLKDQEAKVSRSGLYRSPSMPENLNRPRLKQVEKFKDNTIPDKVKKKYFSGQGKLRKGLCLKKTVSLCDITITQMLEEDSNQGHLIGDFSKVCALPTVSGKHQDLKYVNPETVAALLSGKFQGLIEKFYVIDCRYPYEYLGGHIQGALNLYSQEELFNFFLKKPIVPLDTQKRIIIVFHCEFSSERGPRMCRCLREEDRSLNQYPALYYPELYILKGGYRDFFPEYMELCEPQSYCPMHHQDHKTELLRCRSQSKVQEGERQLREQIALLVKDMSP
Experiment: Inhibition of Cdc25C (unknown origin) phosphatase activity assessed as fluorescence by BMG plate reader in the absence of detergent

Structure (SMILES)	IC50 [µM]
COc1ccccc1-c1nc(-c2ccc3c(c2)CCN3S(C)(=O)=O)cs1	14.2
O=C(Nc1cccc(-c2csc(-c3ccccc3)n2)c1)c1ccco1	> 100
CCOc1ccc(-c2nc(-c3ccc4ccccc4c3)cs2)cc1	31.5
COc1ccc(-c2nc(-c3cc(C)n(CC4CCCO4)c3C)cs2)cc1 (centres undefined)	24.7
COc1ccc(-c2csc(-c3cccc(NC(=O)C4CC4)c3)n2)cc1	16.8

Biological target: T5, M-phase inducer phosphatase 3
Experiment: Inhibition of Cdc25C (unknown origin) phosphatase activity assessed as fluorescence by BMG plate reader in the presence of 0.005% Tween-20

Structure (SMILES)	IC50 [µM]
COc1ccccc1-c1nc(-c2ccc3c(c2)CCN3S(C)(=O)=O)cs1	42.6
O=C(Nc1cccc(-c2csc(-c3ccccc3)n2)c1)c1ccco1	> 100
CCOc1ccc(-c2nc(-c3ccc4ccccc4c3)cs2)cc1	71.5
COc1ccc(-c2nc(-c3cc(C)n(CC4CCCO4)c3C)cs2)cc1 (centres undefined)	> 100
COc1ccc(-c2csc(-c3cccc(NC(=O)C4CC4)c3)n2)cc1	42.2

Biological target: T1, Dual specificity protein phosphatase 3
Experiment: Inhibition of human His-tagged VHR phosphatase activity assessed as fluorescence by BMG plate reader in the presence of 0.005% Tween-20

Structure (SMILES)	IC50 [µM]
COc1ccccc1-c1nc(-c2ccc3c(c2)CCN3S(C)(=O)=O)cs1	40.2
O=C(Nc1cccc(-c2csc(-c3ccccc3)n2)c1)c1ccco1	> 100
CCOc1ccc(-c2nc(-c3ccc4ccccc4c3)cs2)cc1	61
COc1ccc(-c2nc(-c3cc(C)n(CC4CCCO4)c3C)cs2)cc1 (centres undefined)	33.3
COc1ccc(-c2csc(-c3cccc(NC(=O)C4CC4)c3)n2)cc1	> 100

Species on record: Homo sapiens
Experiment: Inhibition of alkaline phosphatase (unknown origin) phosphatase activity assessed as fluorescence at 100 uM by BMG plate reader in the presence of 0.005% Tween-20

Structure (SMILES)	inhibition [%]
COc1ccccc1-c1nc(-c2ccc3c(c2)CCN3S(C)(=O)=O)cs1	< 50
CCOc1ccc(-c2nc(-c3ccc4ccccc4c3)cs2)cc1	< 50
COc1ccc(-c2nc(-c3cc(C)n(CC4CCCO4)c3C)cs2)cc1 (centres undefined)	< 50

Biological target: T4, M-phase inducer phosphatase 1
Experiment: Inhibition of Cdc25A (unknown origin) phosphatase activity assessed as fluorescence by BMG plate reader in the absence of detergent

Structure (SMILES)	IC50 [µM]
COc1ccccc1-c1nc(-c2ccc3c(c2)CCN3S(C)(=O)=O)cs1	4
O=C(Nc1cccc(-c2csc(-c3ccccc3)n2)c1)c1ccco1	17.8
CCOc1ccc(-c2nc(-c3ccc4ccccc4c3)cs2)cc1	13
COc1ccc(-c2nc(-c3cc(C)n(CC4CCCO4)c3C)cs2)cc1 (centres undefined)	6.4
COc1ccc(-c2csc(-c3cccc(NC(=O)C4CC4)c3)n2)cc1	10.2

Biological target: T2, M-phase inducer phosphatase 2
Experiment: Inhibition of Cdc25B (unknown origin) phosphatase activity assessed as fluorescence by BMG plate reader in the presence of 0.005% Tween-20

Structure (SMILES)	IC50 [µM]
COc1ccccc1-c1nc(-c2ccc3c(c2)CCN3S(C)(=O)=O)cs1	31.3
O=C(Nc1cccc(-c2csc(-c3ccccc3)n2)c1)c1ccco1	> 100
CCOc1ccc(-c2nc(-c3ccc4ccccc4c3)cs2)cc1	> 100
COc1ccc(-c2nc(-c3cc(C)n(CC4CCCO4)c3C)cs2)cc1 (centres undefined)	23.6
COc1ccc(-c2csc(-c3cccc(NC(=O)C4CC4)c3)n2)cc1	> 100

Species on record: Homo sapiens
Experiment: Inhibition of MKP-5/p38 (unknown origin) phosphatase activity assessed as fluorescence at 100 uM by BMG plate reader in the presence of 0.005% Tween-20

Structure (SMILES)	inhibition [%]
COc1ccccc1-c1nc(-c2ccc3c(c2)CCN3S(C)(=O)=O)cs1	< 50
CCOc1ccc(-c2nc(-c3ccc4ccccc4c3)cs2)cc1	< 50
COc1ccc(-c2nc(-c3cc(C)n(CC4CCCO4)c3C)cs2)cc1 (centres undefined)	< 50
